# Assay results as given in US12304912B2, “Fused bicyclic RAF inhibitors and methods for use thereof” (Jazz Pharmaceuticals Ireland Limited, priority 2020, dated 2025).
# Like-named read-outs stand apart in the source and are kept apart here.
# What was measured:
# [1] = system: BRAF monomers in A375 cells; assay: A375 AlphaLISA SureFire pERK1/2 cellular assay (monomer); assay type: cell-based; conditions: Homo sapiens, A-375; A375 cells, 1 hr; read-out: pERK A375 (1 hr) pIC50 (converted)
# Outline: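 BRAF^V600E A375 melanoma cells seeded at 30,000/well in DMEM with 10% FBS, dosed without medium exchange in a 10-point series from 10 μM at 1/2-log steps, 1 h at 37 °C. Phospho-ERK1/2 (Thr202/Tyr204) measured in lysates by AlphaLISA SureFire; absolute IC50 relative to DMSO control.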
# [2] = system: RAF dimers in HCT-116 cells; assay: HCT-116 AlphaLISA SureFire pERK1/2 cellular assay (dimer); assay type: cell-based; conditions: Homo sapiens, HCT-116, 1 hr
# Outline: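 HCT-116 (KRAS G13D) cells, 30,000/well, pretreated 1 h with 1 μM Encorafenib to induce RAF dimers, washed, then dosed 1 h at 37° C with compound (10-point, top 10 μM, 1/2 log steps) in growth medium. pERK1/2 (T202/Y204) measured by AlphaLISA SureFire; absolute IC50 versus DMSO control.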
# [3] = Microsomal stability assay, mouse liver microsomes (MLM); assay type: in vitro ADME; conditions: 0.5 mg/mL protein, 1 μM substrate
# Outline: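 Substrate depletion: 1 μM compound incubated at 37° C. with cryopreserved mouse or human liver microsomes at 0.5 mg·mL^−1 protein. Timed aliquots quenched in ice-cold organic solvent and measured by LC-MS/MS; t1/2 and CLint derived from the slope of ln % remaining versus time.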
# [4] = Plasma protein binding assay, human plasma (hPPB); assay type: in vitro ADME; conditions: 5 μM
# Outline: (§1)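 Equilibrium dialysis of 5 μM compound in previously frozen human or mouse plasma against phosphate buffer, 4 h at 37 °C. Both chambers quantified by LC-MS/MS; % free = (1−((PC−PF)/PC))×100.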
# [5] = Plasma protein binding assay, mouse plasma (mPPB); assay type: in vitro ADME; conditions: 5 μM
# Outline: as §1
# [6] = HCT116 cells, dimer, read-out: pERK HCT116 dimer (1 hr) plC50 (converted)
# [7] = equilibrium dialysis 4 hours at 37° C.
# [8] = HCT116 cells pre-dosed with 1 μM Encorafenib, read-out: pERK HCT116 dimer (1 hr) pIC50 (converted)
# [9] = equilibrium dialysis 4 hours 37° C.
SMILES,IC50 [1] [µM],"IC50 [2, 6] [µM]",MLM (CLint) ([3]; 37° C.) [µL/min/mg],"hPPB (% free) [4, 7] [% free]","mPPB (% free) [5, 7] [% free]",microsomal CLint at 1 μM ([3]; 37° C.) [µL/min/mg],"IC50 [2, 8] [µM]",microsomal CLint at 1 μM [3] [µL/min/mg],"hPPB (% free) [4, 9] [% free]","mPPB (% free) [5, 9] [% free]"
"O=C(Nc1cc(Oc2ccc3c(c2)CC(c2nc(-c4ccccc4)c[nH]2)CO3)ccn1)C1CC1(F)F (stereo not drawn) [Compound 137, 2,2-difluoro-N-[4-[3-(4-phenyl-1H-imidazol-2-yl)chroman-6-yl]oxy-2-pyridyl]cyclopropanecarboxamide]",0.191,0.0282,277,0.1,<0.1,–,–,–,–,–
O=C(Nc1cc(Oc2ccc3c(c2)CC(c2nc(-c4ccccc4)c[nH]2)CO3)ccn1)C1(F)CC1 (stereo not drawn) [Compound 138],1.62,0.813,277,<0.1,<0.1,–,–,–,–,–
"O=C(Nc1nccc(Oc2ccc3c(c2)CC(c2nc(-c4ccccc4)c[nH]2)CO3)n1)C1CC1 (stereo not drawn) [Compound 148, N-[4-[3-(4-phenyl-1H-imidazol-2-yl)chroman-6-yl]oxypyrimidin-2-yl]cyclopropanecarboxamide]",1.23,0.457,–,0.9,0.4,211,–,–,–,–
O=C(CN1CC[C@@H](O)C1)Nc1cc(Oc2ccc3c(c2)CC(c2nc(-c4ccccc4)c[nH]2)CO3)ccn1 (stereo partly drawn) [Compound 145],0.537,0.178,–,0.4,0.53,147,–,–,–,–
"Cc1cc(-c2c[nH]c(C3COc4ccc(Oc5ccnc6c5CCC(=O)N6)cc4C3)n2)n(C)n1 (stereo not drawn) [Compound 106, 5-[3-[4-(2,5-dimethylpyrazol-3-yl)-1H-imidazol-2-yl]chroman-6-yl]oxy-3,4-dihydro-1H-1,8-naphthyridin-2-one]",0.933,0.123,–,2.4,3.0,17.1,–,–,–,–
"Cc1c[nH]c(-c2cc(Oc3ccc4c(c3)CC(c3nc(-c5ccccc5)c[nH]3)CO4)ccn2)n1 (stereo not drawn) [Compound 143, 2-(4-methyl-1H-imidazol-2-yl)-4-[3-(4-phenyl-1H-imidazol-2-yl)chroman-6-yl]oxy-pyridine]",0.794,0.575,–,<0.1,<0.1,86.1,–,–,–,–
Cc1cc2nc(C3COc4ccc(Oc5ccnc6c5CCC(=O)N6)cc4C3)[nH]c2cc1C (stereo not drawn) [Compound 29],0.0324,–,–,–,–,–,0.219,77.6,0.2,0.6
"O=C(Nc1cc(Oc2ccc3c(c2)CC(c2nc(-c4ccc(F)cc4)c[nH]2)CO3)ccn1)C1CC1 (stereo not drawn) [Compound 155, N-[4-[3-[4-(4-fluorophenyl)-1H-imidazol-2-yl]chroman-6-yl]oxy-2-pyridyl]cyclopropanecarboxamide]",0.117,0.0724,277,0.1,0.1,–,–,–,–,–
"O=C1CCc2c(Oc3ccc4c(c3)CC(c3nc(-c5ccnc(C(F)(F)F)c5)c[nH]3)CO4)ccnc2N1 (stereo not drawn) [Compound 8, 5-[3-[4-[2-(trifluoromethyl)-4-pyridyl]-1H-imidazol-2-yl]chroman-6-yl]oxy-3,4-dihydro-1H-1,8-naphthyridin-2-one]",0.316,0.269,–,1.0,1.1,–,0.269,13.9,1.0,1.1
"Cc1cc(-c2c[nH]c(C3COc4ccc(Oc5ccnc6c5CCC(=O)N6)cc4C3)n2)ccn1 (stereo not drawn) [Compound 117, 5-[3-[4-(2-methyl-4-pyridyl)-1H-imidazol-2-yl]chroman-6-yl]oxy-3,4-dihydro-1H-1,8-naphthyridin-2-one]",0.724,0.11,–,2.6,2.3,13.4,–,–,–,–
"CCc1cc(-c2c[nH]c(C3COc4ccc(Oc5ccnc6c5CCC(=O)N6)cc4C3)n2)ccn1 (stereo not drawn) [Compound 118, 5-[3-[4-(2-ethyl-4-pyridyl)-1H-imidazol-2-yl]chroman-6-yl]oxy-3,4-dihydro-1H-1,8-naphthyridin-2-one]",0.631,0.148,–,1.3,1.0,40,–,–,–,–
"O=C1CCc2c(Oc3ccc4c(c3)CC(c3nc(-c5cncc(C(F)(F)F)c5)c[nH]3)CO4)ccnc2N1 (stereo not drawn) [Compound 103, 5-[3-[4-[5-(trifluoromethyl)-3-pyridyl]-1H-imidazol-2-yl]chroman-6-yl]oxy-3,4-dihydro-1H-1,8-naphthyridin-2-one]",0.389,0.107,–,0.6,0.6,4.4,–,–,–,–
